Assay results as given in patent publication US20160238590A1, “COMPOSITIONS AND METHODS RELATED TO OAT SENSITIVITY” (IMMUSANT, INC., priority 2013, published 2016).
[ ]: non-standard residue; d: D form. pGlu = O=C1CC[C@@H](C(=O)O)N1

Key:
Assay type in all cases: cell-based, human
PBMC [1] = assay: IFN-γ ELISpot on PBMC of CD patients after 3-day barley challenge; details: for response following barley challenge: 3 oats responders, titrating concentrations (FIG. 1b); for patients responding following pure barley challenge: 3 patients that had previously responded to avenin peptides following oats challenge; for responses compared with DQ2.5-ave-1c responses: third patient; for responses compared with DQ2.5-ave-1c responses / responses compared with DQ2.5-hor-3a responses: after barley challenge (FIG. 1b); for responses compared with DQ2.5-hor-3a responses: 2/3 patients
Procedure, shortened: (§1)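 PBMC from HLA-DQ2.5+/DQ8+ biopsy-proven coeliac patients on gluten-free diet ≥4 weeks, collected on day 6 after starting a 3-day oral challenge (oats 100 g/day, barley 150 g/day, or wheat/barley/rye muffins 22-25 g each daily). Responses to avenin, hordein and gluten peptide libraries, some deamidated or tTG-treated, measured by IFN-γ ELISpot.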

Patient 2 TCC-03 = assay: IFN-γ ELISpot with T cell clone; details: TCC Patient 2 TCC-03, peptide 25 μg/mL
Procedure, shortened: (§2)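 Clone specificity was assessed by IFN-γ ELISpot, using irradiated HLA-matched PBMC for antigen presentation.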

Patient 8 TCC-01 = assay: IFN-γ ELISpot with T cell clone; details: TCC Patient 8 TCC-01, peptide 25 μg/mL
Procedure, shortened: as §2

Patient 14 TCC-01 = assay: IFN-γ ELISpot with T cell clone; details: TCC Patient 14 TCC-01, peptide 50 μg/mL
Procedure, shortened: as §2

Patient 10 TCC-01 = assay: IFN-γ ELISpot with T cell clone; details: TCC Patient 10 TCC-01, peptide 50 μg/mL
Procedure, shortened: as §2

Patient 2 TCC-01 = assay: IFN-γ ELISpot with T cell clone
Procedure, shortened: as §2

Patient 9 TCC-02 = assay: IFN-γ ELISpot with T cell clone; details: TCC Patient 9 TCC-02, peptide 50 μg/mL
Procedure, shortened: as §2

Patient 9 TCC-01 = assay: IFN-γ ELISpot with T cell clone; details: TCC Patient 9 TCC-01, peptide 50 μg/mL
Procedure, shortened: as §2

Patient 6 TCC-01 = assay: IFN-γ ELISpot with T cell clone
Procedure, shortened: as §2

Patient 2 TCC-02 = assay: IFN-γ ELISpot with T cell clone; details: TCC Patient 2 TCC-02, peptide 25 μg/mL
Procedure, shortened: as §2

PBMC [2] = assay: IFN-γ ELISpot on PBMC of CD patients after combined wheat, barley, and rye challenge
Excerpt: Australian Caucasian HLA-DQ2.5^+ and/or HLA-DQ8^+ CD subjects were recruited by advertisement in the Coeliac Society of Victoria newsletter and all had biopsy-proven CD conforming to ESPGHAN criteria. Patients had been on strict gluten free diet for at least 4 weeks prior to commencing grain challenge. Patients underwent 3-day grain challenge with oats, barley, or combined wheat, barley, and rye muffins, and 6 days after commencement, blood was collected. Day 0 responses were not observed in the selection of patients tested, as described previously^8.
Oats challenge consisted of 100 g dry weight daily of one of three commercial brands of oats: one not tested for wheat contamination (Uncle Toby's; Oats #1), and two shown by R5 ELISA to contain less than 20 ppm wheat gluten (Tilquhilie Pudding; Oats #2 and Freedom Food; Oats #3). Barley challenge consisted of pearl barley (Ward McKenzie) cooked into a risotto (150 g dry weight daily) and the wheat challenge consisted of four 50 g slices of wheat bread daily (Baker's Delight white loaf cut to toasting thickness). The combined wheat, barley, and rye challenge consisted of muffins baked with wheat flour (White Wings), barley flour (Four Leaf Milling), and rye flour (Four Leaf Milling; 22-25 g dry weight each daily). A symptom diary based on a […] Likert scale was completed by participants daily from baseline until day 6.
Two avenin peptide libraries were utilized for epitope screening. These were designed using avenin sequences from GenBank and a customized algorithm, as previously described^9. The initial library consisted of 199 screening-grade 20 mers including all possible 12 mers (Mimotopes). This library was screened with and without tTG pre-treatment. The second library consisted of additional avenin sequences that were synthesized with glutamate substitution at sites predicted to be deamidated by published algorithms^10, 11 removing the requirement for tTG treatment. This library contained 369 screening-grade 20 mers, including all possible 12 mers (Pepscan). The second round avenin library contained wild-type and deamidated versions of the most immunogenic sequences (25 high quality 16 mers from Mimotopes). High quality peptides containing previously described immunogenic sequences from wheat, barley, and rye were used to test for cross-reactivity^8 (Pepscan). High quality hordein and avenin peptides for TCC testing and biochemical studies were ordered from Pepscan, Mimotopes, or GL Biochem.
Peripheral blood mononuclear cells (PBMC) were isolated from heparinized whole blood using Ficoll-Paque™ Plus density-gradient centrifugation (GE Healthcare). IFN-γ ELISpot (Mabtech) was set up as previously described^8.

PBMC [3] = assay: IFN-γ ELISpot on PBMC of CD patients on day 6 after 3-day oats challenge
Procedure, shortened: as §1

[4] = Patient 1, peptide 25 μg/ml, after barley challenge
[5] = Patient 2, peptide 25 μg/ml, after barley challenge
[6] = Patient 3, peptide 25 μg/ml, after barley challenge
[7] = TCC Patient 2 TCC-01, peptide 25 μg/mL
[8] = TCC Patient 2 TCC-01, peptide 50 μg/mL
[9] = TCC Patient 6 TCC-01, peptide 25 μg/mL
[10] = TCC Patient 6 TCC-01, peptide 50 μg/mL
[11] = 19 HLA-DQ2.5+ CD patients, peptide 10 μg/mL (FIG. 1a)

Sequence	response following barley challenge (PBMC [1])	patients responding following pure barley challenge (PBMC [1])	IFN-γ ELISpot response (raw SFU) (PBMC [1]; [4]) [SFU]	significant SFU as a percentage of maximal peptide SFU (PBMC [1]; [4])	IFN-γ ELISpot response (raw SFU) (PBMC [1]; [5]) [SFU]	significant SFU as a percentage of maximal peptide SFU (PBMC [1]; [5])	IFN-γ ELISpot response (raw SFU) (PBMC [1]; [6]) [SFU]	significant SFU as a percentage of maximal peptide SFU (PBMC [1]; [6])	IFN-γ ELISpot response (SFU) (Patient 2 TCC-03)	IFN-γ ELISpot response (SFU) (Patient 8 TCC-01)	significant SFU as a percentage of maximal peptide SFU (Patient 8 TCC-01)	IFN-γ ELISpot response (raw SFU) (Patient 14 TCC-01) [SFU]	IFN-γ ELISpot response (raw SFU) (Patient 10 TCC-01) [SFU]	IFN-γ ELISpot response (SFU) (Patient 2 TCC-01; [7])	IFN-γ ELISpot response (raw SFU) (Patient 2 TCC-01; [8]) [SFU]	IFN-γ ELISpot response (raw SFU) (Patient 9 TCC-02) [SFU]	IFN-γ ELISpot response (raw SFU) (Patient 9 TCC-01) [SFU]	IFN-γ ELISpot response (SFU) (Patient 6 TCC-01; [9])	IFN-γ ELISpot response (raw SFU) (Patient 6 TCC-01; [10]) [SFU]	IFN-γ ELISpot response (SFU) (Patient 2 TCC-02)	further results
PEQPIPEQPQPYPQQ	responded to all three peptides to varying degrees	All three patients responded	317	*** (***: >70%)	162	*** (***: >70%)	142	*** (***: >70%)	156	143	*** (***: >70%)	48	3	1	1	2	4	107	86	1	responses compared with DQ2.5-ave-1c responses (PBMC [1]): slightly lower; significant SFU as a percentage of maximal peptide SFU (Patient 2 TCC-03): *** (***: >70%); significant SFU as a percentage of maximal peptide SFU (Patient 14 TCC-01): ** (**: 40-70%); significant SFU as a percentage of maximal peptide SFU (Patient 6 TCC-01; [9]): *** (***: >70%); significant SFU as a percentage of maximal peptide SFU (Patient 6 TCC-01; [10]): *** (***: >70%); patients that did not respond to either peptide (PBMC [2]; [11]): 9 patients; patients that responded to both peptides (PBMC [2]; [11]): 8 patients; patients that responded to the hordein peptide but not the avenin peptide (PBMC [2]; [11]): 2 patients; responses compared with AAB32025 (7-21) [Q7 to pyroE, Q15 to E, and Q21 to Q-amide] responses (PBMC [2]; combined wheat, barley, and rye challenge): generally higher
QPQPYPEQPQPYP ([pGlu]PQPYPEQPQPYP-NH2; SMILES NC(=O)CC[C@H](NC(=O)[C@H](CCC(=O)O)NC(=O)[C@@H]1CCCN1C(=O)[C@H](Cc1ccc(O)cc1)NC(=O)[C@@H]1CCCN1C(=O)[C@H](CCC(N)=O)NC(=O)[C@@H]1CCCN1C(=O)[C@@H]1CCC(=O)N1)C(=O)N1CCC[C@H]1C(=O)N[C@@H](CCC(N)=O)C(=O)N1CCC[C@H]1C(=O)N[C@@H](Cc1ccc(O)cc1)C(=O)N1CCC[C@H]1C(N)=O)	responded to all three peptides to varying degrees	–	–	–	–	–	–	–	132	175	*** (***: >70%)	27	3	232	316	0	1	86	52	1	responses compared with DQ2.5-hor-3a responses (PBMC [1]): almost equivalent; responses compared with DQ2.5-ave-1c responses (PBMC [1]): equivalent; significant SFU as a percentage of maximal peptide SFU (Patient 2 TCC-03): *** (***: >70%); significant SFU as a percentage of maximal peptide SFU (Patient 14 TCC-01): * (*: 20-40%); significant SFU as a percentage of maximal peptide SFU (Patient 2 TCC-01; [7]): *** (***: >70%); significant SFU as a percentage of maximal peptide SFU (Patient 2 TCC-01; [8]): *** (***: >70%); significant SFU as a percentage of maximal peptide SFU (Patient 6 TCC-01; [9]): *** (***: >70%); significant SFU as a percentage of maximal peptide SFU (Patient 6 TCC-01; [10]): ** (**: 40-70%)
YQPYPEQEQPILQQ	responded to all three peptides to varying degrees	All three patients responded	59	^^ (^^: 10-20%)	204.5	*** (***: >70%)	26	^^ (^^: 10-20%)	1	114	** (**: 40-70%)	18	5	238	300	2	4	3	2	145	responses compared with DQ2.5-hor-3a responses (PBMC [1]): lower; patients with lower polyclonal T cell responses compared with 1103203A (31-45) peptide (PBMC [1]; after barley challenge): 2/3; significant SFU as a percentage of maximal peptide SFU (Patient 2 TCC-01; [7]): *** (***: >70%); significant SFU as a percentage of maximal peptide SFU (Patient 2 TCC-01; [8]): *** (***: >70%); significant SFU as a percentage of maximal peptide SFU (Patient 2 TCC-02): ** (**: 40-70%); response following oats challenge (PBMC [3]; three additional patients that responded to the peptide after barley challenge): did not respond; response after previous oats challenge (PBMC [3]; three patients that responded after the combined grain challenge): no responses; patients that did not respond to either peptide (PBMC [2]; [11]): 9 patients; patients that responded to both peptides (PBMC [2]; [11]): 8 patients
